Results reported in article PMC6858350, “A common mechanism allows selective targeting of GluN2B subunit-containing N-methyl-D-aspartate receptors” (Communications Biology, 2019).

Columns and labels:
[1] = tested on: more than 100 relevant receptors, transporters and enzymes including adrenergic (α1), dopaminergic (D1, D2), opioid (κ, μ, δ) and serotonergic receptors …; design: method as in earlier work; conditions: concentration of 1 - 3 µM; ref 2 (Tewes et al., Bioorg. Med. Chem. 2010); cited from earlier work
[2] = molecular target: GluN1-1a/GluN2B NMDAR (wildtype) (Rattus norvegicus, UniProt P35439+Q00960); format: cell-based; conditions: for IC50 / p (slope of the dose-response curve) / A2 ± SE (maximum inhibition from dose-response curve): TEVC, wildtype; for IC50: holding potential −70 mV, 10 µM glycine and 10 µM (S)-glutamate, read-out: IC50 ± SE; for p (slope of the dose-response curve) / A2 ± SE (maximum inhibition from dose-response curve): −70 mV; for A2 ± SE (maximum inhibition from dose-response curve): flexible A2
GluN1-1a F113S/GluN2B WT [3] = molecular target: T1, GluN1-1a F113S/GluN2B WT (Rattus norvegicus, UniProt P35439+Q00960, F113S); experiment: cell-based
GluN1-1a WT/GluN2B I111A [4] = molecular target: T2, GluN1-1a WT/GluN2B I111A (Rattus norvegicus, UniProt P35439+Q00960, I111A); conditions: GluN2B I111A
T2 sequence (Q00960 27-1482 I111A, other chains not shown): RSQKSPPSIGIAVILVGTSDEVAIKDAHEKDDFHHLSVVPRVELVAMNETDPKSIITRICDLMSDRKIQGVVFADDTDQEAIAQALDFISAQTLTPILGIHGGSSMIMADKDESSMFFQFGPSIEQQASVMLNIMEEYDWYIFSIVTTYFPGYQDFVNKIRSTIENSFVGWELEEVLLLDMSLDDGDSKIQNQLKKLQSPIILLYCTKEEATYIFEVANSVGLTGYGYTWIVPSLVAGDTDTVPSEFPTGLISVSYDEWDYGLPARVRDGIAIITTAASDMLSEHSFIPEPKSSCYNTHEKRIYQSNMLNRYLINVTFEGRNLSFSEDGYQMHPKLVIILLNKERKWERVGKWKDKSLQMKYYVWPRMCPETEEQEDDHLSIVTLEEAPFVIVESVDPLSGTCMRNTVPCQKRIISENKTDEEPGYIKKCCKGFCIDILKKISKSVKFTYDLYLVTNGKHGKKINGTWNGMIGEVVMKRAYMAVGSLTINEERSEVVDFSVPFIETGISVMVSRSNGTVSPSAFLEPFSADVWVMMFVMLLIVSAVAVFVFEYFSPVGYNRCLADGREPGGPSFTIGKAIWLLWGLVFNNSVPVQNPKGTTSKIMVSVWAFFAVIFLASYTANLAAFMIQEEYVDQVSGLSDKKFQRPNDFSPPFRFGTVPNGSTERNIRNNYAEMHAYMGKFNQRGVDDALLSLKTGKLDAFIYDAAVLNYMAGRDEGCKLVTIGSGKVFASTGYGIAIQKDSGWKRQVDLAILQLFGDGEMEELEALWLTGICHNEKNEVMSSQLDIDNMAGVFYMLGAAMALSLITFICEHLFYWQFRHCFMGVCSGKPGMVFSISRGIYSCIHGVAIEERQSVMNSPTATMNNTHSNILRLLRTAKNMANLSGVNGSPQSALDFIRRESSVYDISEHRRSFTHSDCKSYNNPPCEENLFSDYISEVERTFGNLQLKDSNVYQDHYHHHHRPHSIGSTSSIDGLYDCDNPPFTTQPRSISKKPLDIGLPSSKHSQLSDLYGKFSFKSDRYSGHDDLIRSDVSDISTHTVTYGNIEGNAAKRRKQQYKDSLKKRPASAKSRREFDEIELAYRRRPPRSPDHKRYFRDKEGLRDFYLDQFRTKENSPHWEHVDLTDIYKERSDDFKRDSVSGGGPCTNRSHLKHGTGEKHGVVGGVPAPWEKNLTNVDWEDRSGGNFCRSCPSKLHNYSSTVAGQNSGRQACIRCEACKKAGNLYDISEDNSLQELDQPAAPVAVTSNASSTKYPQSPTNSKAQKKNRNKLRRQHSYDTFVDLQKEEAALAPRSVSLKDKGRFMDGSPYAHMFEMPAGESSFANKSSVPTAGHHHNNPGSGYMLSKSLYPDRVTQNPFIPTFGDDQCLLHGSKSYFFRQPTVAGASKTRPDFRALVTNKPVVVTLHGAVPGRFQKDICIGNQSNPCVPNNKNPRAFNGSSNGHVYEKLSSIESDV

GluN1-1a/GluN2A NMDAR = GluN1-1a/GluN2A NMDAR (Rattus norvegicus, UniProt P35439+Q00959); experiment: cell-based; conditions: read-out: ion current inhibition % ± SEM, GluN2A
GluN1-1a WT/GluN2B F176Y [5] = molecular target: T3, GluN1-1a WT/GluN2B F176Y (Rattus norvegicus, UniProt P35439+Q00960, F176Y); conditions: GluN2B F176Y
T3 sequence (Q00960 27-1482 F176Y, other chains not shown): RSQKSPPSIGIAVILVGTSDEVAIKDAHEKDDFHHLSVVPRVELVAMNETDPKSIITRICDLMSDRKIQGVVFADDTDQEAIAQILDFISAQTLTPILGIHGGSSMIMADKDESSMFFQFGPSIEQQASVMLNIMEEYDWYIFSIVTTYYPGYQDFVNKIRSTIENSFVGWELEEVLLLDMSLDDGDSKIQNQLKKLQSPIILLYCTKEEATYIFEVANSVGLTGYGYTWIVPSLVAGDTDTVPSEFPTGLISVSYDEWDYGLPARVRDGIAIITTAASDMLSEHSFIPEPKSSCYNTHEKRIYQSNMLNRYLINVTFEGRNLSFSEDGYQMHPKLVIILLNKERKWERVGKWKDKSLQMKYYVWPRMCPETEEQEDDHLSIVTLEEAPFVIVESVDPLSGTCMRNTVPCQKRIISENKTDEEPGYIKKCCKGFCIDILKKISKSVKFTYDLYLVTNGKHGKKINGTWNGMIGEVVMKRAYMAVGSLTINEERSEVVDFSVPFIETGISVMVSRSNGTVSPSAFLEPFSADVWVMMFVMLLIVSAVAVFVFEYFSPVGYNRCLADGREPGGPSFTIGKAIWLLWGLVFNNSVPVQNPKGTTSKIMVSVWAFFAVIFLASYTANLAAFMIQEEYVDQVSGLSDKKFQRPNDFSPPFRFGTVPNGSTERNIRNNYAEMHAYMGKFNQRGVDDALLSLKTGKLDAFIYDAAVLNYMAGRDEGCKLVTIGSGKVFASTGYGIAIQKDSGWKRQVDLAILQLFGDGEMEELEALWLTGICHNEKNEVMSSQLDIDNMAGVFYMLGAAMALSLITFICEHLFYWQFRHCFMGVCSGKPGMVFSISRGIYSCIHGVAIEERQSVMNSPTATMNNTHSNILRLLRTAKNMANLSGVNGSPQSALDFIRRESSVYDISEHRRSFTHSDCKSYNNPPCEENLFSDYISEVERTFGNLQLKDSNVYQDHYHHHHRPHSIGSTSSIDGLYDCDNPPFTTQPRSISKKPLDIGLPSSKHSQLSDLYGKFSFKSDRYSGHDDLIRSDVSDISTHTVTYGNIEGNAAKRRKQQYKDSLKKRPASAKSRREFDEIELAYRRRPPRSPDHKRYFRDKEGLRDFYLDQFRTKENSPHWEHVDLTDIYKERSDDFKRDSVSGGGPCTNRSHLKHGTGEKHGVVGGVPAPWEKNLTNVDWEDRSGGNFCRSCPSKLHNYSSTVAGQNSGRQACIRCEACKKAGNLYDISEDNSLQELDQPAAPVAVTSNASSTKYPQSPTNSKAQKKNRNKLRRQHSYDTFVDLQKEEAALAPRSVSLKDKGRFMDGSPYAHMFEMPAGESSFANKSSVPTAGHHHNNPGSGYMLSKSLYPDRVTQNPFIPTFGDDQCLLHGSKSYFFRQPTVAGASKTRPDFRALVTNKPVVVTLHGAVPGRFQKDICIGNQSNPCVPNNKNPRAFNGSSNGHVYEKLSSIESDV

GluN1-1a WT/GluN2B F176A [6] = molecular target: T4, GluN1-1a WT/GluN2B F176A (Rattus norvegicus, UniProt P35439+Q00960, F176A); conditions: GluN2B F176A
GluN1-1a S132A/GluN2B WT [7] = molecular target: T5, GluN1-1a S132A/GluN2B WT (Rattus norvegicus, UniProt P35439+Q00960, S132A); experiment: cell-based
GluN1-1a WT/GluN2B F176A [8] = molecular target: T4, GluN1-1a WT/GluN2B F176A; experiment: cell-based
GluN1-1a WT/GluN2B Q110A [9] = molecular target: T6, GluN1-1a WT/GluN2B Q110A (Rattus norvegicus, UniProt P35439+Q00960, Q110A); experiment: cell-based
[10] = molecular target: T7, GluN1-1a/GluN2B (ifenprodil binding site) (Homo sapiens, UniProt Q05586+Q13224); conditions: displacement of [3H]ifenprodil; Ki values previously published; read-out: Ki + SEM; cited from earlier work
T7 construct: expressed in transfected cells; host or cells: mouse L(tk) cells, dexamethasone-inducible expression; membrane fraction

GluN1-1a WT/GluN2B E236A = GluN1-1a WT/GluN2B E236A (Rattus norvegicus, UniProt P35439+Q00960, E236A); conditions: GluN2B E236A
GluN1-1a WT/GluN2B F114A [11] = molecular target: T8, GluN1-1a WT/GluN2B F114A (Rattus norvegicus, UniProt P35439+Q00960, F114A); conditions: GluN2B F114A
GluN1-1a Y109S/GluN2B WT [12] = molecular target: T9, GluN1-1a Y109S/GluN2B WT (Rattus norvegicus, UniProt P35439+Q00960, Y109S); conditions: GluN1-1a Y109S
GluN1-1a S132A/GluN2B WT [13] = molecular target: T5, GluN1-1a S132A/GluN2B WT; conditions: GluN1-1a S132A
GluN1-1a/GluN2D NMDAR = GluN1-1a/GluN2D NMDAR (Rattus norvegicus, UniProt P35439+Q62645); experiment: cell-based; conditions: read-out: ion current inhibition % ± SEM, GluN2D
GluN1-1a/GluN2C NMDAR = GluN1-1a/GluN2C NMDAR (Rattus norvegicus, UniProt P35439+Q00961); experiment: cell-based; conditions: read-out: ion current inhibition % ± SEM, GluN2C
GluN1-1a WT/GluN2B F176Y [14] = molecular target: T3, GluN1-1a WT/GluN2B F176Y; experiment: cell-based
GluN1-1a WT/GluN2B I111A [15] = molecular target: T2, GluN1-1a WT/GluN2B I111A; experiment: cell-based
GluN1-1a WT/GluN2B F114A [16] = molecular target: T8, GluN1-1a WT/GluN2B F114A; experiment: cell-based
GluN1-1a L135N/GluN2B WT [17] = molecular target: T10, GluN1-1a L135N/GluN2B WT (Rattus norvegicus, UniProt P35439+Q00960, L135N); conditions: GluN1-1a L135N
T10 sequence (Q00960 27-1482, other chains not shown): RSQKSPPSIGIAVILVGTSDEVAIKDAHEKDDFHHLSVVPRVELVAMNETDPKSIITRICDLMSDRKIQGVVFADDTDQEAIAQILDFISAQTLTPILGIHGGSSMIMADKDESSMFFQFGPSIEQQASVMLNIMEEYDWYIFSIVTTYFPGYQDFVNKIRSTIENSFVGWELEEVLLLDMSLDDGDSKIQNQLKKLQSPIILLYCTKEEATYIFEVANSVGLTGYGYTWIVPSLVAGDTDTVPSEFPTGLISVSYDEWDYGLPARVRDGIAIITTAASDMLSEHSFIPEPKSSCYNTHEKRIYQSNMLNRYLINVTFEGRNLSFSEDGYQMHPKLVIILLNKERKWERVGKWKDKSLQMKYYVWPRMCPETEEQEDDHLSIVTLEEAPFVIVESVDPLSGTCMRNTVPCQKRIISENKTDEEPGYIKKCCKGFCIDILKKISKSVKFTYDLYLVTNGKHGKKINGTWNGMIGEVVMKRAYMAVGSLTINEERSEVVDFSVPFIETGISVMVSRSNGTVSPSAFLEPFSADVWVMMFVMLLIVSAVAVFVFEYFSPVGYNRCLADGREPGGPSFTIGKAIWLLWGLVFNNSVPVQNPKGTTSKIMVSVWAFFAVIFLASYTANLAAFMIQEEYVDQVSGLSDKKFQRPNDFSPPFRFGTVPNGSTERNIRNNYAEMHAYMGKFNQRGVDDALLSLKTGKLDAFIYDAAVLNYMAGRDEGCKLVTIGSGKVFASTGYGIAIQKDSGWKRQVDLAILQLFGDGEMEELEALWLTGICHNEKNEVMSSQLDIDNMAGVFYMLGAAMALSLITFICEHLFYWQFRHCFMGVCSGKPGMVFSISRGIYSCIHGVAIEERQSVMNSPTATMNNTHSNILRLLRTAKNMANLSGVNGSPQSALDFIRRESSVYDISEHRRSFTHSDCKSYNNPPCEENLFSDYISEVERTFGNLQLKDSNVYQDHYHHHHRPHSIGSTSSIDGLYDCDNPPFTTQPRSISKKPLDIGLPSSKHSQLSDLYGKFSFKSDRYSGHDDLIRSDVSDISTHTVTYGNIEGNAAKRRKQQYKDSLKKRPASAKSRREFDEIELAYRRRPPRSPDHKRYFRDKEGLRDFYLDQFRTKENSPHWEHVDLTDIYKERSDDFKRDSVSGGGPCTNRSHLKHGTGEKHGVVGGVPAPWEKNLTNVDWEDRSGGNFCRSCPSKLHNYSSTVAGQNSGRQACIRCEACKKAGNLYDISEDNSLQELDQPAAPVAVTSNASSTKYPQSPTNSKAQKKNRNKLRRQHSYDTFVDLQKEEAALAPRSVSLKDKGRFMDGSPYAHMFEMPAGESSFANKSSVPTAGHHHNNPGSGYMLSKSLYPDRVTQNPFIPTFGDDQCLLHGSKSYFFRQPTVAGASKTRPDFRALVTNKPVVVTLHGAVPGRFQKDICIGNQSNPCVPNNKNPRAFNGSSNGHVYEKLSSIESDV

GluN1-1a WT/GluN2B Q110A [18] = molecular target: T6, GluN1-1a WT/GluN2B Q110A; conditions: GluN2B Q110A
GluN1-1a Y109S/GluN2B WT [19] = molecular target: T9, GluN1-1a Y109S/GluN2B WT; experiment: cell-based
GluN1-1a L135N/GluN2B WT [20] = molecular target: T10, GluN1-1a L135N/GluN2B WT; experiment: cell-based
GluN1-1a F113S/GluN2B WT [21] = molecular target: T1, GluN1-1a F113S/GluN2B WT; conditions: GluN1-1a F113S
[22] = maximum inhibition fixed to wildtype value

Oc1ccc2c(c1)CCN(CCCCc1ccccc1)CC2O (racemic) [compound rac-1]
competition with the employed radioligands [1]: did not compete | IC50 [2]: 94 ± 8 nM | p (slope of the dose-response curve) [2]: 1.25 | A2 ± SE (maximum inhibition from dose-response curve) [2]: 93 ± 2%

Oc1ccc2c(c1)CCN(CCCCc1ccccc1)C[C@H]2O [compound (S)-1]
IC50 (GluN1-1a F113S/GluN2B WT [3]): 756 ± 137 nM | p (slope) (GluN1-1a WT/GluN2B I111A [4]): 0.89 | A2 ± SE (GluN1-1a WT/GluN2B I111A [4]; flexible A2): 73 ± 6% | inhibition at 10 µM (GluN1-1a/GluN2A NMDAR): 6 ± 2% | p (slope) (GluN1-1a WT/GluN2B F176Y [5]): 0.82 | A2, fixed-to-wildtype (*) (GluN1-1a WT/GluN2B F176Y [5]; [22]): 95% | p (slope) (GluN1-1a WT/GluN2B F176A [6]): 1.00 | A2, fixed-to-wildtype (*) (GluN1-1a WT/GluN2B F176A [6]; [22]): 95% | IC50 (GluN1-1a S132A/GluN2B WT [7]): 691 ± 44 nM | IC50 (GluN1-1a WT/GluN2B F176A [8]): 15500 ± 1790 nM | IC50 (GluN1-1a WT/GluN2B Q110A [9]): 243 ± 34 nM | Ki [10]: 740 ± 61 nM | p (slope) (GluN1-1a WT/GluN2B E236A): 0.99 | A2 ± SE (GluN1-1a WT/GluN2B E236A; flexible A2): 96 ± 8% | p (slope) (GluN1-1a WT/GluN2B F114A [11]): 1.26 | A2, fixed-to-wildtype (*) (GluN1-1a WT/GluN2B F114A [11]; [22]): 95% | p (slope) (GluN1-1a Y109S/GluN2B WT [12]): 0.85 | A2 ± SE (GluN1-1a Y109S/GluN2B WT [12]; flexible A2): 79 ± 4% | p (slope) (GluN1-1a S132A/GluN2B WT [13]): 1.16 | A2 ± SE (GluN1-1a S132A/GluN2B WT [13]; flexible A2): 89 ± 1% | inhibition at 10 µM (GluN1-1a/GluN2D NMDAR): 21 ± 3% | inhibition at 10 µM (GluN1-1a/GluN2C NMDAR): 19 ± 2% | IC50 (GluN1-1a WT/GluN2B F176Y [14]): 261 ± 25 nM | IC50 (GluN1-1a WT/GluN2B I111A [15]): 1560 ± 504 nM | IC50 (GluN1-1a WT/GluN2B F114A [16]): 38900 ± 5280 nM | p (slope) (GluN1-1a L135N/GluN2B WT [17]): 0.98 | A2 ± SE (GluN1-1a L135N/GluN2B WT [17]; flexible A2): 68 ± 7% | p (slope) (GluN1-1a WT/GluN2B Q110A [18]): 1.27 | A2 ± SE (GluN1-1a WT/GluN2B Q110A [18]; flexible A2): 94 ± 2% | IC50 (GluN1-1a Y109S/GluN2B WT [19]): 764 ± 189 nM | IC50 (GluN1-1a L135N/GluN2B WT [20]): 3660 ± 1180 nM | IC50 [2]: 206 ± 23 nM | p (slope of the dose-response curve) [2]: 0.98 | A2 ± SE (maximum inhibition from dose-response curve) [2]: 95 ± 2% | inhibition at 10 µM ([2]; read-out: ion current inhibition % ± SEM, GluN2B): 93 ± 1% | p (slope) (GluN1-1a F113S/GluN2B WT [21]): 0.87 | A2 ± SE (GluN1-1a F113S/GluN2B WT [21]; flexible A2): 89 ± 4%
